Data set [1] is described as follows: Rat quantitative whole-body autoradiography (QWBA) studies, aortic retention. The class given is in vivo.
For data set [2] the following is noted: described in literature (Schmidt et al. 1984); concomitant ultra-structural changes by electron microscopy; cited from earlier work.

Take `N#Cc1ccc(-c2ccc(C[C@@H](C#N)NC(=O)C3(N)CCOCC3)cc2)cc1` [WO2010/128324 (Ex. 3), 4-amino-N-[(1S)-1-cyano-2-(4′-cyanobiphenyl-4-yl)ethyl]tetrahydro-2H-pyran-4-carboxamide]: the “aortic retention in rat QWBA studies” value in data set [1] is reported as “high level of aortic retention”.

Regarding `CC(c1ccc(Cl)c(Cl)c1)N1N=C(N)CC1=O` (centres unmarked) [muzolimine], the “retention in the aorta in QWBA studies” value in data set [2] was “retained selectively in the aorta”.

Source of the values: patent US11680049B2, “Certain (2S)-N-[(1S)-1-cyano-2-phenylethyl]-1,4-oxazepane-2-carboxamides as dipeptidyl peptidase 1 inhibitors” (AstraZeneca AB, priority 2014, dated 2023).
